Results published in ChEMBL document CHEMBL3272309, “Potential central nervous system antitumor agents. Aziridinylbenzoquinones. 1” (J Med Chem, 1976).
Values after ≈ are worked out from the molar mass of the structure shown.

Legend:
B16 [1] = experiment: Antitumor activity against mouse B16 cells allografted in mouse assessed as change in body weight at 0.78 mg/kg, ip qd administered from day 1 to 9 post ip tumor-implantation measured on day 5 relative to control; format: functional; conditions: route intraperitoneal
[2] = test system: Lewis lung carcinoma cell line; experiment: Antitumor activity against mouse LLC cells allografted in mouse assessed as change in body weight at 4 mg/kg, ip qd administered from day 5 to 15 post sc tumor-implantation measured on day 5 relative to control; format: functional; conditions: route subcutaneous
L1210 [3] = experiment: Antitumor activity against mouse L1210 cells allografted in mouse assessed as mouse survival at 6.25 mg/kg, ip qd administered from day 1 to 9 post intracerebral tumor-implantation relative to control; format: functional; conditions: route intraperitoneal
L1210 [4] = experiment: Antitumor activity against mouse L1210 cells allografted in mouse assessed as mouse survival at 0.78 mg/kg, ip qd administered from day 1 to 9 post intracerebral tumor-implantation relative to control; format: functional; conditions: route intraperitoneal
L1210 [5] = experiment: Antitumor activity against mouse L1210 cells allografted in mouse assessed as change in body weight at 1.56 mg/kg, ip qd administered from day 1 to 9 post intracerebral tumor-implantation measured on day 5 relative to control; format: functional; conditions: route intraperitoneal
Mus musculus [6] = experiment: Toxicity in mouse allografted with mouse ependymoblastoma cells at 4 mg/kg, ip qd administered from day 1 to 5 post intracerebral tumor-implantation; format: organism-based; set-up: dose 4 mg/kg, route intraperitoneal; conditions: in vivo
P388 [7] = experiment: Antitumor activity against mouse P388 cells allografted in mouse assessed as mouse survival at 3.12 mg/kg, ip qd administered from day 1 to 9 post intracerebral tumor-implantation relative to control; format: functional; conditions: route intraperitoneal
P388 [8] = experiment: Antitumor activity against mouse P388 cells allografted in mouse assessed as mouse survival at 1.56 mg/kg, ip qd administered from day 1 to 9 post intracerebral tumor-implantation relative to control; format: functional; conditions: route intraperitoneal
P388 [9] = experiment: Antitumor activity against mouse P388 cells allografted in mouse assessed as mouse survival at 0.78 mg/kg, ip qd administered from day 1 to 9 post intracerebral tumor-implantation relative to control; format: functional; conditions: route intraperitoneal
P388 [10] = experiment: Antitumor activity against mouse P388 cells allografted in mouse assessed as change in body weight at 6.25 mg/kg, ip qd administered from day 1 to 9 post intracerebral tumor-implantation measured on day 5 relative to control; format: functional; conditions: route intraperitoneal
P388 [11] = experiment: Antitumor activity against mouse P388 cells allografted in mouse assessed as change in body weight at 3.12 mg/kg, ip qd administered from day 1 to 9 post intracerebral tumor-implantation measured on day 5 relative to control; format: functional; conditions: route intraperitoneal
P388 [12] = experiment: Antitumor activity against mouse P388 cells allografted in mouse assessed as change in body weight at 1.56 mg/kg, ip qd administered from day 1 to 9 post intracerebral tumor-implantation measured on day 5 relative to control; format: functional; conditions: route intraperitoneal
P388 [13] = experiment: Antitumor activity against mouse P388 cells allografted in mouse assessed as change in body weight at 0.78 mg/kg, ip qd administered from day 1 to 9 post intracerebral tumor-implantation measured on day 5 relative to control; format: functional; conditions: route intraperitoneal
[14] = Antitumor activity against mouse ependymoblastoma cells allografted in mouse assessed as mouse survival at 2 mg/kg, ip qd administered from day 1 to 5 post intracerebral tumor-implantation relative to control; format: functional; conditions: route intraperitoneal
[15] = Antitumor activity against mouse ependymoblastoma cells allografted in mouse assessed as mouse survival at 4 mg/kg, ip qd administered from day 1 to 5 post intracerebral tumor-implantation relative to control; format: functional; conditions: route intraperitoneal
[16] = Antitumor activity against mouse ependymoblastoma cells allografted in mouse assessed as mouse survival at 0.25 mg/kg, ip qd administered from day 1 to 5 post intracerebral tumor-implantation relative to control; format: functional; conditions: route intraperitoneal
[17] = Antitumor activity against mouse ependymoblastoma cells allografted in mouse assessed as change in body weight at 4 mg/kg, ip qd administered from day 1 to 5 post intracerebral tumor-implantation measured on day 5 relative to control; format: functional; conditions: route intraperitoneal
[18] = Antitumor activity against mouse ependymoblastoma cells allografted in mouse assessed as change in body weight at 2 mg/kg, ip qd administered from day 1 to 5 post intracerebral tumor-implantation measured on day 5 relative to control; format: functional; conditions: route intraperitoneal
[19] = Therapeutic ratio in ip dosed mouse allografted with mouse ependymoblastoma cells; format: ADME, organism-based; conditions: in vivo, read-out: TI
[20] = Aqueous solubility of the compound; format: physicochemical
Mus musculus [21] = experiment: Toxicity in mouse allografted with mouse L1210 cells at 12.5 mg/kg, ip qd administered from day 1 to 9 post ip tumor-implantation; format: organism-based; set-up: dose 12.5 mg/kg, route intraperitoneal; conditions: in vivo
L1210 [22] = experiment: Antitumor activity against mouse L1210 cells allografted in mouse assessed as mouse survival at 4.6 mg/kg, ip qd administered from day 1 to 9 post ip tumor-implantation relative to control; format: functional; conditions: route intraperitoneal
L1210 [23] = experiment: Antitumor activity against mouse L1210 cells allografted in mouse assessed as mouse survival at 0.88 mg/kg, ip qd administered from day 1 to 9 post ip tumor-implantation relative to control; format: functional; conditions: route intraperitoneal
L1210 [24] = experiment: Antitumor activity against mouse L1210 cells allografted in mouse assessed as change in body weight at 12.5 mg/kg, ip qd administered from day 1 to 9 post ip tumor-implantation measured on day 5 relative to control; format: functional; conditions: route intraperitoneal
L1210 [25] = experiment: Antitumor activity against mouse L1210 cells allografted in mouse assessed as change in body weight at 0.88 mg/kg, ip qd administered from day 1 to 9 post ip tumor-implantation measured on day 5 relative to control; format: functional; conditions: route intraperitoneal
P388 [26] = experiment: Antitumor activity against mouse P388 cells allografted in mouse assessed as mouse survival at 1.56 mg/kg, ip qd administered from day 1 to 9 post ip tumor-implantation relative to control; format: functional; conditions: route intraperitoneal
P388 [27] = experiment: Antitumor activity against mouse P388 cells allografted in mouse assessed as mouse survival at 0.78 mg/kg, ip qd administered from day 1 to 9 post ip tumor-implantation relative to control; format: functional; conditions: route intraperitoneal
Mus musculus [28] = experiment: Toxicity in mouse allografted with mouse P388 cells at 6.25 mg/kg, ip qd administered from day 1 to 9 post ip tumor-implantation; format: organism-based; set-up: dose 6.25 mg/kg, route intraperitoneal; conditions: in vivo
P388 [29] = experiment: Antitumor activity against mouse P388 cells allografted in mouse assessed as change in body weight at 3.12 mg/kg, ip qd administered from day 1 to 9 post ip tumor-implantation measured on day 5 relative to control; format: functional; conditions: route intraperitoneal
P388 [30] = experiment: Antitumor activity against mouse P388 cells allografted in mouse assessed as change in body weight at 6.25 mg/kg, ip qd administered from day 1 to 9 post ip tumor-implantation measured on day 5 relative to control; format: functional; conditions: route intraperitoneal
Mus musculus [31] = experiment: Toxicity in mouse allografted with mouse B16 cells at 6.25 mg/kg, ip qd administered from day 1 to 9 post ip tumor-implantation; format: organism-based; set-up: dose 6.25 mg/kg, route intraperitoneal; conditions: in vivo
B16 [32] = experiment: Antitumor activity against mouse B16 cells allografted in mouse assessed as mouse survival at 3.12 mg/kg, ip qd administered from day 1 to 9 post ip tumor-implantation relative to control; format: functional; conditions: route intraperitoneal
B16 [33] = experiment: Antitumor activity against mouse B16 cells allografted in mouse assessed as change in body weight at 3.12 mg/kg, ip qd administered from day 1 to 9 post ip tumor-implantation measured on day 5 relative to control; format: functional; conditions: route intraperitoneal
B16 [34] = experiment: Antitumor activity against mouse B16 cells allografted in mouse assessed as change in body weight at 1.56 mg/kg, ip qd administered from day 1 to 9 post ip tumor-implantation measured on day 5 relative to control; format: functional; conditions: route intraperitoneal

CCOC(=O)NC1=C(N2CC2)C(=O)C(NC(=O)OCC)=C(N2CC2)C1=O [DIAZIQUONE]
Activity (B16 [1]): -2.2 g | Activity [2]: -0.1 g | T/C (L1210 [3]): 103% | T/C (L1210 [4]): 103% | Activity (L1210 [5]): -0.6 g | Activity (Mus musculus [6]): Toxic | T/C (P388 [7]): 131% | T/C (P388 [8]): 137% | T/C (P388 [9]): 125% | Activity (P388 [10]): -2.8 g | Activity (P388 [11]): -2.1 g | Activity (P388 [12]): -1.1 g | Activity (P388 [13]): -0.4 g | T/C [14]: 271% | T/C [15]: 376% | T/C [16]: 130% | Activity [17]: -3.9 g | Activity [18]: -2.7 g | selectivity ratio [19]: 4 | solubility [20]: 500 µg/mL (≈ 1370 µM) | Activity (Mus musculus [21]): Toxic | T/C (L1210 [22]): 98% | T/C (L1210 [23]): 132% | Activity (L1210 [24]): -5 g | Activity (L1210 [25]): -1.4 g | T/C (P388 [26]): 212% | T/C (P388 [27]): 199% | Activity (Mus musculus [28]): Toxic | Activity (P388 [29]): -4.1 g | Activity (P388 [30]): -6.1 g | Activity (Mus musculus [31]): Toxic | T/C (B16 [32]): 143% | Activity (B16 [33]): -2.7 g | Activity (B16 [34]): -3.6 g
